Reference: PubChem BioAssay AID1963983 (Molecular Pharmacology Branch, DTP, NCI, 2024)

System: 186277-243-T-J2-PDC multi-cell spheroid viability
Experiment: Anticancer human tumor 186277-243-T-J2-PDC patient-derived colon adenocarcinoma cell line growth inhibition [PI3K]
Details: for IC50: curve of first compound; for viability, T/C: stronger effect = lower value
Summary of the method: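 Tumor cells grown as multi-cell spheroids with HUVEC endothelial cells and MSC fibroblast-like stroma were treated with targeted agents combined with inavolisib, alpelisib, duvelisib or copanlisib. Doses fell in half-log steps from near clinical Cmax, else from 10 microM. Viability was measured.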
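Also: spheroids exposed to compounds for seven days before viability reading.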
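For viability, T/C in this document: 100% = DMSO vehicle control viability.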

Molecule CC(C)NCC(C(=O)N1CCN(c2ncnc3c2C(C)CC3O)CC1)c1ccc(Cl)cc1 (configuration not stated) + Cc1nc(NC(=O)N2CCCC2C(N)=O)sc1-c1ccnc(C(C)(C)C(F)(F)F)c1 has an IC50 (second compound 0.0316 µM) of 893 nM, an IC50 (second compound 0.1 µM) of 603 nM and an IC50 (second compound 0.316 µM) of 544 nM. The IC50 (second compound 1 µM) was 262 nM, the IC50 (second compound 3.16 µM) was 59.7 nM and the IC50 (second compound 10 µM) was under 31.6 nM. The viability, T/C (second compound 0.0316 µM, first compound 0.0316 µM) was 115%, the viability, T/C (second compound 0.0316 µM, first compound 0.1 µM) was 93% and the viability, T/C (second compound 0.0316 µM, first compound 0.316 µM) was 59%. For the same molecule, the viability, T/C (second compound 0.0316 µM, first compound 1 µM) was 54.1%, the viability, T/C (second compound 0.0316 µM, first compound 3.16 µM) was 31.6% and the viability, T/C (second compound 0.0316 µM, first compound 10 µM) was 22.5%. It also gave a viability, T/C (second compound 0.1 µM, first compound 0.0316 µM) of 90.3%, a viability, T/C (second compound 0.1 µM, first compound 0.1 µM) of 92.4% and a viability, T/C (second compound 0.1 µM, first compound 0.316 µM) of 58.6%. It also gave a viability, T/C (second compound 0.1 µM, first compound 1 µM) of 43.9%, a viability, T/C (second compound 0.1 µM, first compound 3.16 µM) of 23.5% and a viability, T/C (second compound 0.1 µM, first compound 10 µM) of 23.9%. For the same molecule, the viability, T/C (second compound 0.316 µM, first compound 0.0316 µM) was 94.5%, the viability, T/C (second compound 0.316 µM, first compound 0.1 µM) was 80.2% and the viability, T/C (second compound 0.316 µM, first compound 0.316 µM) was 64%. The viability, T/C (second compound 0.316 µM, first compound 1 µM) was 36.5%, the viability, T/C (second compound 0.316 µM, first compound 3.16 µM) was 18% and the viability, T/C (second compound 0.316 µM, first compound 10 µM) was 14.3%. It also gave a viability, T/C (second compound 1 µM, first compound 0.0316 µM) of 92.5%, a viability, T/C (second compound 1 µM, first compound 0.1 µM) of 74.8% and a viability, T/C (second compound 1 µM, first compound 0.316 µM) of 45.4%. The viability, T/C (second compound 1 µM, first compound 1 µM) was 24.7%, the viability, T/C (second compound 1 µM, first compound 3.16 µM) was 21.4% and the viability, T/C (second compound 1 µM, first compound 10 µM) was 16.3%. The viability, T/C (second compound 3.16 µM, first compound 0.0316 µM) was 56.3%, the viability, T/C (second compound 3.16 µM, first compound 0.1 µM) was 47% and the viability, T/C (second compound 3.16 µM, first compound 0.316 µM) was 25.3%. It also gave a viability, T/C (second compound 3.16 µM, first compound 1 µM) of 20.3%, a viability, T/C (second compound 3.16 µM, first compound 3.16 µM) of 10% and a viability, T/C (second compound 3.16 µM, first compound 10 µM) of 5.7%. The viability, T/C (second compound 10 µM, first compound 0.0316 µM) was 14.2%, the viability, T/C (second compound 10 µM, first compound 0.1 µM) was 13.1% and the viability, T/C (second compound 10 µM, first compound 0.316 µM) was 7.49%. The viability, T/C (second compound 10 µM, first compound 1 µM) was 9.25%, the viability, T/C (second compound 10 µM, first compound 3.16 µM) was 5.71% and the viability, T/C (second compound 10 µM, first compound 10 µM) was 3.29%.
